Assay results reported in ChEMBL document CHEMBL1125625, “Antinociceptive (aminoalkyl)indoles” (J Med Chem, 1991).

Columns and labels:
Assay type in all cases: functional
[1] = test system: Mus musculus; assay: Acetylcholine writhing inhibitory activity measured in vivo in mouse by peroral administration; conditions: po
[2] = test system: Rattus norvegicus; assay: Intra arterial bradykinin activity for the compound was measured in rat (in vivo) by peroral administration
[3] = test system: Rattus norvegicus; assay: Adjuvant arthritis paw flexion activity for the compound was measured in rat (in vivo) by peroral administration; conditions: po
[4] = test system: Rattus norvegicus; assay: Acetic acid writhing inhibitory activity for the compound was measured in rat (in vivo) by peroral administration; conditions: po
[5] = test system: Rattus norvegicus; assay: Randall-Selitto activity for the compound was measured in rat (in vivo) by peroral administration; conditions: po, read-out: MED
[6] = test system: Mus musculus; assay: Acetylcholine writhing inhibitory activity for the compound was measured in vivo in mouse by peroral administration at 100 uM
[7] = test system: Mus musculus; assay: Acetylcholine writhing inhibitory activity for the compound was measured in mouse (in vivo) by iv administration at 30 uM
[8] = test system: Mus musculus; assay: Acetylcholine writhing inhibitory activity for the compound was measured in vivo in mouse by peroral administration at 238 uM
[9] = test system: Mus musculus; assay: Acetylcholine writhing inhibitory activity for the compound was measured in vivo in mouse by peroral administration at 20 uM
[10] = test system: Mus musculus; assay: Acetylcholine writhing inhibitory activity was measured in mouse (in vivo) by iv administration
[11] = test system: Mus musculus; assay: Acetylcholine writhing inhibitory activity for the compound was measured in mouse (in vivo) by peroral administration at 1000 uM
[12] = test system: Mus musculus; assay: Acetylcholine writhing inhibitory activity for the compound was measured in vivo in mouse by peroral administration at 300 uM

With `COc1ccc(C(=O)c2c(C)n(CCN3CCOCC3)c3ccccc23)cc1` [PRAVADOLINE] the ED50 [1] was 41 mg/kg, the ED50 [2] was 120 mg/kg and the ED50 [3] was 100 mg/kg. The ED50 [4] was 15 mg/kg and the minimal effective dose [5] was 1 mg/kg.

Work on `Cc1c(C(=O)c2cccc(F)c2)c2ccccc2n1CCN1CCOCC1` yielded an Inhibition [6] of 30%.

`Cc1c(C(=O)c2ccccc2F)c2ccccc2n1[C@@H](C)CN1CCOCC1` was tested, and the ED50 [1] was 37 mg/kg.

`Cc1c(C(=O)c2csc3ccccc23)c2ccccc2n1CCN1CCOCC1` showed an Inhibition [7] of 60%.

Molecule `Cc1c(C(=O)c2ccccc2F)c2ccccc2n1[C@H](C)CN1CCOCC1` has an ED50 [1] of 9 mg/kg.

With `COc1ccc(C(=O)c2c(C)n(CCN(C)C)c3ccccc23)cc1` the ED50 [1] was 65 mg/kg.

Work on `Cc1c(C(=O)c2ccc(F)cc2)c2ccccc2n1CCN1CCOCC1` yielded an Inhibition [8] of 60%.

`COc1ccc(C(=O)c2c(C)n(CCCCN3CCOCC3)c3ccccc23)cc1` was tested, and the ED50 [1] was 56 mg/kg.

`C[C@@H](CN1CCOCC1)n1cc(C(=O)c2ccccc2F)c2ccccc21` was tested, and the ED50 [1] was 48 mg/kg.

`CCNCCn1c(C)c(C(=O)c2ccc(OC)cc2)c2ccccc21` gave an ED50 [1] of 46 mg/kg.

Work on `Cc1cccc(C(=O)c2c(C)n(CCN3CCOCC3)c3ccccc23)c1` yielded an Inhibition [9] of 20%.

Molecule `CCN(CC)CCn1c(C)c(C(=O)c2ccc(OC)cc2)c2ccccc21` has an ED50 [1] of 50 mg/kg.

In the case of `Cc1c(C(=O)c2cccc3ccccc23)c2ccccc2n1CCN1CCOCC1`, the ED50 [10] is reported as 0.19 mg/kg, the ED50 [2] is reported as 52 mg/kg and the ED50 [3] is reported as 30 mg/kg. For the same molecule, the ED50 [4] was 38 mg/kg.

Work on `O=C(c1cccc2ccccc12)c1cn(CCN2CCOCC2)c2ccccc12` yielded an ED50 [10] of 0.12 mg/kg and an ED50 [1] of 23 mg/kg.

Molecule `CCc1c(C(=O)c2ccc(OC)cc2)c2ccccc2n1CCN1CCOCC1` has an ED50 [1] of 82 mg/kg.

Work on `COc1ccc(C(=O)c2c(C)n(CCN3CCNCC3)c3ccccc23)cc1` yielded an ED50 [1] of 21 mg/kg.

`Cc1c(C(=O)c2cccc3ccccc23)c2ccccc2n1CCN1CCOC(O)C1` (stereo unspecified) gave an ED50 [10] of 9.7 mg/kg and an Inhibition [11] of 50%.

`COc1ccc(C(=O)c2c(C)n(CCCCCCN3CCOCC3)c3ccccc23)cc1` was tested, and the ED50 [1] was 28 mg/kg.

With `COc1ccc(C(=O)c2c(C)n(CCN3CCCC(O)C3)c3ccccc23)cc1` (stereo unspecified) the ED50 [1] was 26 mg/kg.

Molecule `COc1ccc(C(=O)c2c(C)n(CCN3CCC(O)CC3)c3ccccc23)cc1` has an ED50 [1] of 68 mg/kg.

`CC(C(=O)O)n1cc(C(=O)c2ccccc2F)c2ccccc21` (stereo unspecified) was tested, and the ED50 [1] was 8 mg/kg.

For `CC(CN1CCOCC1)n1cc(C(=O)c2ccccc2F)c2ccccc21` (stereo unspecified), the ED50 [1] was 19 mg/kg.

`C[C@H](C(=O)O)n1cc(C(=O)c2ccccc2F)c2ccccc21` was tested, and the ED50 [10] was 5 mg/kg.

In the case of `COc1ccc(C(=O)c2c(C)n(CCN3CCCCC3)c3ccccc23)cc1`, the Inhibition [12] is reported as 71%.

`Cc1c(C(=O)c2ccccc2F)c2ccccc2n1CCN1CCOCC1` showed an ED50 [1] of 79 mg/kg.

Molecule `C[C@@H](C(=O)O)n1cc(C(=O)c2ccccc2F)c2ccccc21` has an ED50 [10] of 38 mg/kg.

In the case of `O=C(c1ccccc1)c1ccc2n1CCC2C(=O)O` (stereo unspecified) [KETOROLAC], the ED50 [1] is reported as 1.1 mg/kg.

`COc1ccc(C(=O)c2c(C)n(CCCCCN3CCOCC3)c3ccccc23)cc1` was tested, and the ED50 [1] was 15 mg/kg.

`Cc1c(C(=O)c2ccccc2F)c2ccccc2n1C(C)C(=O)O` (stereo unspecified) gave an ED50 [1] of 12 mg/kg.

`C[C@H](CN1CCOCC1)n1cc(C(=O)c2ccccc2F)c2ccccc21` showed an ED50 [1] of 11 mg/kg.

`COc1ccc(C(=O)c2c(C)n(CC(=O)O)c3ccccc23)cc1` was tested, and the ED50 [1] was 173 mg/kg.

With `CSc1ccc(C(=O)c2c(C)n(CCN3CCOCC3)c3ccccc23)cc1` the ED50 [1] was 22 mg/kg.
